Test results taken from patent publication US20030157026A1, “Photodynamic diagnosis and therapy for insulin-dependent diabetes mellitus” (priority 2001, published 2003).

What was measured:
Type in all cases: in vivo
[1] = test system: macrophages having infiltrated the inflammatory sites of Langerhans islets; experiment: Uptake of conventional PDT photosensitizers into macrophages in the pancreas of a mammal with IDDM; conditions: no test described
[2] = test system: macrophages having infiltrated the islets of Langerhans; experiment: Test Example 1: fluorescence localisation in frozen pancreatic sections after i.v. administration to BB rats with onset of IDDM; conditions: 5 mg/kg via tail vein, pancreas excised 1 hour after administration, 664 nm laser (same result with 405 nm UV / 672 nm fluorescence)
Source text: From 60 days after birth, the BB rats were examined every day for the urine sugar level and blood sugar level by using GLUTEST SENSOR (Sanwa Kagaku Co., Ltd., Japan). […] The excised pancreases were frozen in dry ice/acetone, to prepare frozen pancreatic sections of 5 μm in thickness. The frozen pancreatic sections were irradiated with a semiconductor laser light of 664 nm (Matsushita Industrial Equipment Co., Ltd., Japan). An image of fluorescence as emitted by mono-L-aspartyl chlorin e6 in the frozen pancreatic section was observed under a fluorescence microscope equipped with a notched filter for cutting 664 nm wavelength (made by Carl Zeiss). […]
Further, the places of the pancreas section which indicated the previously observed fluorescence of mono-L-aspartyl chlorin e6 were confirmed to be consistent with the sites where the macrophages were present in the pancreas sections. […] When a method comprising irradiation of a UV ray of a wavelength of 405 nm and observing a fluorescence at 672 nm with a cut filter for cutting light rays of wavelengths of not more than 600 nm was used for the observation of the fluorescence of mono-L-aspartyl chlorin e6, there could again be obtained the same result as that obtained in the above-described method comprising irradiation of the 664-nm semiconductor laser.

[3] = test system: BB rats with onset of IDDM; experiment: Test Example 3: photodynamic therapy of IDDM in BB rats (664-nm laser light), survival rate
Method: From 60 days after birth, BB rats (16 rats per group) were examined every day for the urine sugar level and blood sugar level, to confirm the time of the onset of IDDM. […] Photodynamic therapy of IDDM was thus conducted once, and thereafter, the survival rate (%) of the BB rats were evaluated during the breeding for subsequent […].
On the other hand, the survival rate (%) of the control group of rats (untreated) was about 65% on Day 6 after the start of the test, and all rats had died on Day 22 after the start of the test.
The survival rate (%) of rats under test was evaluated by the following equation: [formula]

[4] = BB rats treated by the photodynamic therapy

## CCOC(=O)C1=Cc2c3nc(cc4nc(cc5[n-]c(cc6[n-]c2c(C)c6CC)c(C)c5CC)C(C)=C4CC)[C@@H](C)[C@]13CC.[Cl-].[Cl-].[Sn] (racemic) [rostaporfin]
[1]
  uptake into macrophages when each singly administered: selectively be uptaken by and into the macrophages

## C=CC1=C(C)C2=CC3=C(/C=C/NO)C(C)(O)C(=CC4=NC(=CC5=NC(=CC1=N2)C(C)=C5CCC(=O)N[C@@H](CC(=O)[O-])C(=O)[O-])C(CCC(=O)N[C@@H](CC(=O)[O-])C(=O)[O-])=C4C)N3.[Na+].[Na+].[Na+].[Na+] (stereo partly drawn) [ATX-S10]
[1]
  uptake into macrophages when each singly administered: selectively be uptaken by and into the macrophages

## C=Cc1c(C)c2cc3nc(c(CC(=O)O)c4[nH]c(cc5nc(cc1[nH]2)C(C)=C5CC)c(C)c4C(=O)O)[C@@H](CCC(=O)O)[C@@H]3C [chlorin e6]
[1]
  uptake into macrophages when each singly administered: selectively be uptaken by and into the macrophages

## C=Cc1c(C)c2cc3nc(c(CC(=O)N[C@@H](CC(=O)[O-])C(=O)[O-])c4[nH]c(cc5nc(cc1[nH]2)C(C)=C5CC)c(C)c4C(=O)[O-])[C@@H](CCC(=O)[O-])[C@@H]3C.[Na+].[Na+].[Na+].[Na+] [mono-L-aspartyl chlorin e6]
[2]
  uptake and accumulation of the administered photosensitizer (fluorescence image vs macrophage antibody staining): uptaken into and accumulated specifically in the macrophages having infiltrated the islets of Langerhans
[3]; [4]
  blood sugar level compared with control group: blood sugar level had changed at slightly lower stages
  progress of Langerhans islet inflammation (pancreatic insulitis): pancreatic insulitis was suppressed by the PDT
[3]; BB rats treated by the photodynamic therapy vs control
  insulin production: tendency to delay the disappearance of insulin production

## CC(=O)[O-].CC(=O)[O-].CCc1c(CC)c2cc3nc(cnc4cc(OCCOCCOCCOC)c(OCCOCCOCCOC)cc4ncc4nc(cc1[n-]2)C(CCCO)=C4C)C(C)=C3CCCO.O.[Lu+3] [motexafin lutetium]
[1]
  uptake into macrophages when each singly administered: selectively be uptaken by and into the macrophages

## porfimer sodium
[1]
  uptake into macrophages when each singly administered: selectively be uptaken by and into the macrophages

## tetrasodium salt of mono-L-aspartyl chlorin e6
[3]; BB rats, 5 mg/kg i.v. plus 664-nm laser, all control rats had died on Day 22
  long-term survivors: several rats surviving still after Day 35
[3]; BB rats, 5 mg/kg i.v., 24 h later 664-nm laser 50 J/cm^2, once
  survival curve compared with untreated control group: evident prolongation of their survival curve
[3]; BB rats, 5 mg/kg i.v., 24 h later 664-nm laser 50 J/cm^2 transcutaneously, once, untreated control about 65%
  survival rate (%) on Day 6 after the start of the therapy: 100%
